Assay results taken from patent US20260327232A1, “Heteroaryl Compounds as Ligand Directed Degraders of IRAK4” (Celgene Corporation, priority 2023, published 2026).
pEC50, pIC50: −log10 of the molar value. Structures can show the parent of a compound that is named as a salt.

Legend:
IRAK4 [1] = target: T1, IRAK4 (Homo sapiens, UniProt Q9NWZ3); assay: ALE THP1 HTRF (IRAK4 in THP1 cell lysates, Homogeneous Time Resolved Fluorescence); format: cell-based; design: THP1 Homogeneous Time Resolved Fluorescence (ALE THP1 HTRF) Procedure; endogenous in cells; host or cells: THP1; settings: THP1 cells
T1 sequence (Q9NWZ3 1-460): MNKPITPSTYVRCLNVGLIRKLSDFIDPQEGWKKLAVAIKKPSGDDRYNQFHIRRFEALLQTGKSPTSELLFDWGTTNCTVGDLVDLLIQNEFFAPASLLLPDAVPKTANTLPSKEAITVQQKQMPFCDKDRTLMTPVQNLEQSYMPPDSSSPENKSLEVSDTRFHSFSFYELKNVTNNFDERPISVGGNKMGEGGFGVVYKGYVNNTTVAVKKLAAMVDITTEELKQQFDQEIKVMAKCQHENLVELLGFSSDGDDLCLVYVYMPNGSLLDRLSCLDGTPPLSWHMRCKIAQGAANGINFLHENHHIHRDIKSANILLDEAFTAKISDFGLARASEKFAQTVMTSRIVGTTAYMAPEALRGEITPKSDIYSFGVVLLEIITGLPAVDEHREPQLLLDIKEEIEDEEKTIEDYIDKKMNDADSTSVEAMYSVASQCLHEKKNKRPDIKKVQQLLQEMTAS
Procedure: Cell culture media was prepared in a tissue culture hood in a sterile environment by adding 10% FBS and 1% Penicillin Streptomycin to 500 mL no phenol red RPMI 1640 media. The media was filtered through a Nalgene Bottle Top Filter and stored at 4° C.
For Homogenous Time Resolved Fluorescence (HTRF) assays, a Cisbio HTRF kit was used, which included: Lysis Buffer #1 4×, Blocking Reagent #3 100×, 20× Antibody 1 (Anti-IRAK4 d2), 20× Antibody 2 (Anti-IRAK4 k), and Detection Buffer.
4× Lysis Buffer was stored at 4° C. For use as 1× Lysis buffer, the 4× solution was diluted with de-ionized water (distilled water, Gibco Cat. #15230279) and 100× Blocking Reagent in a 1:3:0.04 volume ratio.
20× Antibody Solution aliquots were stored in −80° C. and the Detection Buffer was stored in 4° C. For use as a 1× Antibody Solution, the 20× Antibody Solution aliquot was diluted with Detection Buffer in a 1:19 volume ratio.
Cells were lysed at room temperature for 45 min with shaking. A BCA protein assay was performed and normalization was conducted to the desired total protein concentration with 1× lysis buffer. Next, 1× Antibody Solutions were prepared by adding 380 μL Detection Buffer to 20 μL 20× Antibody Solution aliquots and mixing well. 1× Antibody Solutions were combined 1:1 and briefly vortexed. For control wells, 20 μL 1× anti IRAK4-k Antibody Solution was saved. The 384-well plate (ProxiPlate-384 Plus, Perkin Elmer Cat. #6008289) was loaded by adding 4 μL of the mixed Antibody Solution to empty wells using a single channel repeater. Using a multi-channel repeater, 16 μL lysate was added per well, and any bubbles that were formed were popped with 20 μL pipette tips and Kimwipe edges. In column 10, triplicates of each control was prepared. In wells A10, B10, and C10, buffer control was prepared by adding 16 μL Lysis Buffer and 4 μL Detection Buffer. In wells D10, E10, and F10, cryptate control was prepared by adding 16 μL Lysis Buffer, 2 μL Detection Buffer, and 2 μL 1× anti IRAK4-k Antibody Solution. In wells G10, H10, and 110, a negative control was prepared by adding 16 μL Lysis Buffer and 4 μL mixed Antibody Solution. The plate was sealed with a clear seal and covered with an aluminum lid. The plate was spun down at 800 g for 5 min and incubated in the dark at room temperature overnight. The next day, the plate was spun down at 800 g for 5 min. The samples were analyzed by a plate reader (Envision, PerkinElmer) using the Desnor 384 HTRF program.

IRAK4 [2] = target: T1, IRAK4; assay: IRAK4 PhosphoSens Biochemical Assay (BIOCHEM); settings: 200 μM ATP, 10 μM peptide substrate AQT0326, 1 nM IRAK4, room temperature, 240 minutes
Procedure: The PhosphoSens® biochemical assay was performed as described by the vendor (AssayQuant Technologies Inc. Marlborough, MA). A 1.25× stock solution of IRAK4 (PV4002, ThermoFisher Scientific, Waltham, MA) and a 5× stock solution of ATP and Sox conjugated peptide substrate, AQT0326 (CSKS-AQT0326B, AssayQuant Technologies), were prepared in 1× kinase reaction buffer consisting of 50 mM HEPES, pH 7.5, 0.01% Brij-35, 0.5 mM EGTA, 20 mM MgCl2 and 1 mM DTT. 10 μL of the ATP and substrate solution mix, for a final concentration of 200 μM ATP and 10 μM peptide substrate, was added to a Coming 3574 384-well, white, non-binding surface microtiter plate containing 0.5 μL of serially diluted test compounds prepared in DMSO. The reactions were started with the addition of 40 μL of the enzyme solution, for a final IRAK4 concentration of 1 nM, and monitored every 71 seconds for 240 minutes at λEX 360/λEM 485 in a BioTek Synergy H4 plate reader (Agilent Technologies, Santa Clara, CA) at room temperature. The initial linear portions of the progress curves were fit according to a linear equation to yield the slopes and converted to % inhibition based on a value of 100% activity for the no inhibitor treated control. IC50 values of each compound were obtained by fitting the % inhibition-compound concentration curves using Dotmatics software (Dotmatics, Bishops Stortford, Hertfordshire, England).

IRAK4 [3] = target: T1, IRAK4; assay: IRAK4 PhosphoSens Biochemical Assay (BIOCHEM); settings: 200 μM ATP, 10 μM peptide substrate AQT0326, 1 nM IRAK4, room temperature, 240 minutes; remark: listed apart in the source

SMILES | pEC50 (IRAK4 [1]) | pIC50 (IRAK4 [2]) | pIC50 (IRAK4 [3])
Cn1nc(C2CCC(=O)NC2=O)c2ccc(NC3CCN(CC4CCC(n5cc(NC(=O)c6cnn7ccc(N8C[C@H](N)C[C@@H](F)C8)nc67)c(C(F)F)n5)CC4)CC3)cc21 (stereo partly drawn) [P-2, N-[3-(difluoromethyl)-1-[4-[[4-[[3-(2,6-dioxo-3-piperidyl)-1-methyl-indazol-6-yl]amino]-1-piperidyl]methyl]cyclohexyl]pyrazol-4-yl]-5-[(3R,5R)-3-amino-5-fluoro-1-piperidyl]pyrazolo[1,5-a]pyrimidine-3-carboxamide] | 8.40 | > 9.30 | –
Cn1nc(C2CCC(=O)NC2=O)c2ccc(NC3CCN(CC4CCC(n5cc(NC(=O)c6cnn7ccc(N8CC[C@@H](F)[C@@H](N)C8)nc67)c(C(F)F)n5)CC4)CC3)cc21 (some centres unmarked) [P-21] | < 5.00 | > 9.30 | –
Cn1nc(C2CCC(=O)NC2=O)c2ccc(N[C@@H]3CCN(CC4CCC(n5cc(NC(=O)c6cnn7ccc(N8C[C@H](N)C[C@@H](F)C8)nc67)c(C(F)F)n5)CC4)C[C@@H]3F)cc21 (some centres unmarked) [P-24] | 8.40 | > 9.30 | –
Cn1nc(C2CCC(=O)NC2=O)c2ccc(N[C@H]3CCN(CC4CCC(n5cc(NC(=O)c6cnn7ccc(N8C[C@H](N)C[C@@H](F)C8)nc67)c(C(F)F)n5)CC4)C[C@@H]3F)cc21 (some centres unmarked) [P-25] | 8.10 | > 9.30 | –
Cn1nc(C2CCC(=O)NC2=O)c2ccc(NC3CCN(CC4CCC(n5cc(NC(=O)c6cnn7ccc(N8CCOCC8)nc67)c(C(F)F)n5)CC4)CC3)cc21 (centres unmarked) [P-27, N-[3-(Difluoromethyl)-1-[4-[[4-[[3-(2,6-dioxo-3-piperidyl)-1-methyl-indazol-6-yl]amino]-1-piperidyl]methyl]cyclohexyl]pyrazol-4-yl]-5-morpholino-pyrazolo[1,5-a]pyrimidine-3-carboxamide formic acid salt] | 9.00 | > 9.30 | –
CN(c1ccc2c(C3CCC(=O)NC3=O)nn(C)c2c1)C1CCN(CC[C@H]2CC[C@H](n3cc(NC(=O)c4cnn5ccc(N6C[C@H](N)C[C@@H](F)C6)nc45)c(C(F)F)n3)CC2)CC1 (some centres unmarked) [P-33] | 8.00 | – | > 9.30
C[C@H]1CN(CCN2CCC(n3cc(NC(=O)c4cnn5ccc(N6C[C@H](N)C[C@@H](F)C6)nc45)c(C(F)F)n3)CC2)CCN1c1ccc2c(C3CCC(=O)NC3=O)nn(C)c2c1 (some centres unmarked) [P-36] | 8.30 | – | > 9.30
Cn1nc(C2CCC(=O)NC2=O)c2ccc(N3CCN(CCN4CCC(n5cc(NC(=O)c6cnn7ccc(N8C[C@H](N)C[C@@H](F)C8)nc67)c(C(F)F)n5)CC4)CC3)cc21 (stereo partly drawn) [P-40, N-[3-(Difluoromethyl)-1-[1-[2-[4-[3-(2,6-dioxo-3-piperidyl)-1-methyl-indazol-6-yl]piperazin-1-yl]ethyl]-4-piperidyl]pyrazol-4-yl]-5-[(3R,5R)-3-amino-5-fluoro-1-piperidyl]pyrazolo[1,5-a]pyrimidine-3-carboxamide] | 8.22 | – | > 9.30
CN(C[C@H]1CC[C@H](n2cc(NC(=O)c3cnn4ccc(N5CCOC5)nc34)c(C(F)F)n2)CC1)C1CCN(c2ccc3c(C4CCC(=O)NC4=O)nn(C)c3c2)CC1 (some centres unmarked) [P-41] | < 5.00 | – | > 9.30
CN(C)c1ccn2ncc(C(=O)Nc3cn([C@H]4CC[C@H](CN(C)C5CCN(c6ccc7c(C8CCC(=O)NC8=O)nn(C)c7c6)CC5)CC4)nc3C(F)F)c2n1 (some centres unmarked) [P-43] | < 5.00 | – | > 9.30
CN(C[C@H]1CC[C@H](n2cc(NC(=O)c3cnn4ccc(NCc5ccccn5)nc34)c(C(F)F)n2)CC1)C1CCN(c2ccc3c(C4CCC(=O)NC4=O)nn(C)c3c2)CC1 (some centres unmarked) [P-44] | < 5.00 | – | 8.14
CN(C[C@H]1CC[C@H](n2cc(NC(=O)c3cnn4ccc(N5CC[C@@H](c6ccn(C)n6)C5)nc34)c(C(F)F)n2)CC1)C1CCN(c2ccc3c(C4CCC(=O)NC4=O)nn(C)c3c2)CC1 (some centres unmarked) [P-47] | 5.43 | – | 8.62

The next lines start with the values.

pEC50 (IRAK4 [1]) | pIC50 (IRAK4 [2]) | pIC50 (IRAK4 [3]) | SMILES
8.10 | > 9.30 | – | Cn1nc(C2CCC(=O)NC2=O)c2cccc(NC3CCN(CC4CCC(n5cc(NC(=O)c6cnn7ccc(N8C[C@H](N)C[C@@H](F)C8)nc67)c(C(F)F)n5)CC4)CC3)c21 (some centres unmarked) [P-3]
9.00 | > 9.30 | – | Cn1nc(C2CCC(=O)NC2=O)c2ccc(NC3CCN(CC4CCC(n5cc(NC(=O)c6cnn7ccc(N8CC[C@H](F)[C@@H](N)C8)nc67)c(C(F)F)n5)CC4)CC3)cc21 (stereo partly drawn) [P-18, N-[3-(Difluoromethyl)-1-[4-[[4-[[3-(2,6-dioxo-3-piperidyl)-1-methyl-indazol-6-yl]amino]-1-piperidyl]methyl]cyclohexyl]pyrazol-4-yl]-5-[(3S,4S)-3-amino-4-fluoro-1-piperidyl]pyrazolo[1,5-a]pyrimidine-3-carboxamide]
8.40 | – | 9.10 | CN(CC[C@H]1CC[C@H](n2cc(NC(=O)c3cnn4ccc(N5CCOCC5)nc34)c(C(F)F)n2)CC1)C1CCN(c2cccc3c(C4CCC(=O)NC4=O)nn(C)c23)CC1 (some centres unmarked) [P-35]
8.30 | – | > 9.30 | C[C@@H]1CN(CCN2CCC(n3cc(NC(=O)c4cnn5ccc(N6C[C@H](N)C[C@@H](F)C6)nc45)c(C(F)F)n3)CC2)CCN1c1ccc2c(C3CCC(=O)NC3=O)nn(C)c2c1 (stereo partly drawn) [P-37, 5-((3R,5R)-3-amino-5-fluoropiperidin-1-yl)-N-(3-(difluoromethyl)-1-(1-(2-((3R)-4-(3-(2,6-dioxopiperidin-3-yl)-1-methyl-1H-indazol-6-yl)-3-methylpiperazin-1-yl)ethyl)piperidin-4-yl)-1H-pyrazol-4-yl)pyrazolo[1,5-a]pyrimidine-3-carboxamide]
< 5.00 | – | > 9.30 | CN(CC[C@H]1CC[C@H](n2cc(NC(=O)c3cnn4ccc(N5CCOCC5)nc34)c(C(F)F)n2)CC1)C1CCN(c2ccc3c(C4CCC(=O)NC4=O)nn(C)c3c2)CC1 (some centres unmarked) [P-38]
8.40 | – | > 9.30 | CN(C[C@H]1CC[C@H](n2cc(NC(=O)c3cnn4ccc(NCCN)nc34)c(C(F)F)n2)CC1)C1CCN(c2ccc3c(C4CCC(=O)NC4=O)nn(C)c3c2)CC1 (some centres unmarked) [P-45]
< 5.52 | – | 9.10 | CN(C[C@H]1CC[C@H](n2cc(NC(=O)c3cnn4ccc(N5CC[C@H](c6ccn(C)n6)C5)nc34)c(C(F)F)n2)CC1)C1CCN(c2ccc3c(C4CCC(=O)NC4=O)nn(C)c3c2)CC1 (some centres unmarked) [P-46]
